Laboratory results reported in patent US20200165287A1, “SALT OF (SS)-ADENOSYL METHIONINE WITH INOSITOL HEXAPHOSPHATE, AND PROCESS FOR THE PREPARATION THEREOF” (GNOSIS S.p.A., priority 2017, published 2020).

Tests used:
[1] = stability test, storage at +25° C. in a thermostatic stove; type: physicochemical
Experimental: Some samples of the products obtained as described in the previous examples are subjected to stability tests, storing them at +25° C., in a thermostatic stove.
The SAMe ion content analysis (FIG. 3) and the diastereomeric purity relative to the (SS) isomer (FIG. 4) are periodically repeated, and the result is compared with the starting value for the same sample, obtaining the results reported.
The data obtained with the product obtained according to EP 1896489 and two commercial samples of SAMe, 1,4-butanedisulphate salt (SD4 Test 1) and Pates salt (batch S1S1057B), are compared.

[2] = accelerated stability test, thermostatic stove at +55° C., 5 days; type: physicochemical
Experimental: The product obtained as described in Example 6 (comprising SAMe and phytic acid) and a sample of SAMe inositol hexaphosphate obtained as described in Example 5 are subjected to an accelerated stability test, incubated in a thermostatic stove at +55° C., and the analyses are repeated after 5 days.
The samples are analysed for the following values: • SAMe ion content (total of all enantiomers) determined by HPLC and expressed as % by weight • enantiomeric purity, determined by HPLC and expressed as % of (SS) isomer • active ingredient content, calculated by multiplying the previous two values and expressed as % by weight of (SS)SAMe • overall purity, determined by HPLC as SAMe area/total area of chromatogram, expressed as area %. The figure comprises the values of all known degradation impurities.

[3] = Pharmacokinetic profile in the rat (SAMe plasma levels after oral administration by cannula); type: in vivo, Sprague Dawley rats; settings: by cannula in water, 134 mg/kg and 95 mg/kg, equal SAMe ion dose, 0-24 h (FIG. 1, FIG. 2)
Experimental: 70 Sprague Dawley rats (35 male and 35 female), aged 7-9 weeks and weighing 176-200 g, were acclimatized in a cage for two weeks before the start of the treatment, maintained at +22° C. and 55% relative humidity. The rats were fed on 4RF 21 (Mucedola) feed, and weighed before the beginning and at the end of the test. At the time of treatment, 32 animals per group (16 males and 16 females) were selected from those with the most similar weights, and assigned to the two treatments.
The product was administered by cannula, dissolved in water, at two dose levels, namely 134 mg/kg and 95 mg/kg. The rats were fasted overnight before administration and for a further two hours after administration. The two equimolar doses guaranteed an equal intake of SAMe ion.
The blood levels of SAMe were assayed by taking a sample from the tail vein at fixed intervals, at times 0 (pre-administration), 0.5, 1, 1.5, 2, 4, 8 and 24 hours after administration. The blood samples were centrifuged after addition of EDTA to separate the plasma from the cell fraction. The plasma was then analysed by HPLC according to the method reported in Wise, Fullerton J. Liq. Chromatogr. […]
The SAMe plasma concentration values are also used to determine, according to the Area Under Curve (AUC) calculation, the total quantity of active ingredient absorbed, obtaining the values set out in FIG. 2.

Compound: C[S@@+](CC[C@H](N)C(=O)[O-])C[C@H]1O[C@@H](n2cnc3c(N)ncnc32)[C@H](O)[C@@H]1O.O=P(O)(O)O[C@H]1[C@H](OP(=O)(O)O)[C@@H](OP(=O)(O)O)[C@H](OP(=O)(O)O)[C@@H](OP(=O)(O)O)[C@H]1OP(=O)(O)O [AT1003, SAMe inositol hexaphosphate]
- stability of (SS)SAMe isomer content / diastereomeric purity versus starting value (FIG. 4) [1]: stable for longer
- Purity (% area), final value ([2]; HPLC SAMe area/total area, after 5 days at +55° C.): 90.0%
- Purity (% area), starting value ([2]; HPLC SAMe area/total area, starting value): 95.98%
- degradation by isomerization of (SS)SAMe after the stress test ([2]; after 5 days at +55° C.): maintains an excess of the (SS)SAMe form
- (SS)SAMe content (active ingredient, SAMe content x enantiomeric purity), final value ([2]; after 5 days at +55° C., % by weight): 21.28%
- (SS)SAMe content (active ingredient, SAMe content x enantiomeric purity), starting value ([2]; starting value, % by weight): 26.59%

Compound: C[S+](CC[C@H](N)C(=O)[O-])C[C@H]1O[C@@H](n2cnc3c(N)ncnc32)[C@H](O)[C@@H]1O.O=S(=O)(O)CCCCS(=O)(=O)O (some centres unmarked) [SD4 Test 1, reference compound]
- stability of (SS)SAMe isomer content / diastereomeric purity versus starting value (FIG. 4) [1]: stable for longer

Compound: SAMe inositol hexaphosphate [SAMe IP6]
- absorption (AUC) and plasma concentration of SAMe versus SAMe Pates [3]: better absorption and a higher plasma concentration of active ingredient
